Like-named read-outs stand apart in the source and are kept apart here. Marks after values point to notes of the source that are not given here. Bridge positions count the residues as written; N and C are the ends. Square brackets hold non-standard residues; d marks the D form. Peptide text beside a SMILES is read from it. * marks the point of attachment. ξ: configuration not given here. ξβ3hGly(cHex) = NC(CC(=O)*)C1CCCCC1; Thr(3ξ) = CC(O)[C@H](N)C(=O)O; Dab = NCC[C@H](N)C(=O)O
Assays:
[1] = rats, 8 mg/kg BID regimen, seven days, compared to Colistin at the same dose regimen
Method: After one week acclimatisation, male Sprague-Dawley rats were surgically prepared with a jugular cannula and were housed individually, as required, either in pre-assigned housing cages or metabolic cages. Colistin and the Example Compounds were prepared in saline.
Compounds were introduced via the jugular cannula twice a day 7 hours apart for seven days. Each dose was increased progressively for three days up to the top dose that was then administered until termination of the study. Twenty-four hour urine collection (on ice) was performed at pre-dose and on days 4 and 7. The dose regimen is set out in Table 10 below.
The doses in the table are indicated in mg drug base/kg (free base).
The activity in urine of the N-acetyl-beta-D-glucosaminidase (NAG) was determined spectrophotometrically using the NAG assay kit from Roche Applied Science. Biomarkers of kidney injury were determined using the Kidney Injury Panel II from the Multi-Spot® Assay System (Meso Scale Discovery).

[2] = test system: HK-2 cell line; assay: In vitro renal cell toxicity assay (resazurin reduction); format: cell-based, human; settings: HK-2 cells, 24 h, resazurin reduction; mean values of up to 6 independent studies
[3] = test system: E. coli ATCC25922
Method: Mice were rendered temporarily neutropenic by immunosuppression with cyclophosphamide at 150 mg/kg 4 days before infection and 100 mg/kg 1 day before infection by intraperitoneal injection.
Compounds were administered in solution by intravenous (IV) injection into the lateral tail vein. […] The vehicle control group was treated with vehicle (0.9% saline for injection) also at 10 mL/kg IV thrice at 1, 3.5 and 6 hours post infection.
(§1) At 1 hour post infection, 4 animals were humanely euthanized using pentabarbitone overdose to provide a pre-treatment control group. At 9 hours post infection, the clinical condition of all animals was assessed prior to them being humanely euthanized by pentabarbitone overdose. Animal weight was determined before both thighs were removed and weighed individually. Individual thigh tissue samples were homogenized in ice cold sterile phosphate buffered saline. Thigh homogenates were then quantitatively cultured onto CLED agar and incubated at 37° C. for 24 hours before colonies were counted.

[4] = test system: P. aeruginosa ATCC27853; format: in vivo, Pseudomonas aeruginosa; settings: 1:1 with rifampicin at a total dose of 5 mg/kg, IV at 1, 3.5 and 6 hours
Method: as §1, with “Compounds were administered in solution by intravenous (IV) bolus injection into the lateral tail vein. […] At 1” for “At 1”

[5] = test system: P. aeruginosa ATCC 27853

| Molecule | levels of the renal biomarkers NAG, albumin and cystatin C in urine [1] | IC50 HK-2 cells [2] | log reduction in bacterial counts compared to the non-treated control ([3]; 1:1 combination with Rifampicin at 4 mg/Kg total dose) [log] | Log reduction from vehicle (CFU/g) ([3]; Table 9, monotherapy 0.125 mg/kg IV at 1, 3.5 and 6 h post infection, 9 h) [log CFU/g] | Log reduction from vehicle (CFU/g) ([3]; Table 9, monotherapy 0.5 mg/kg IV at 1, 3.5 and 6 h post infection, 9 h) [log CFU/g] | Log reduction from vehicle (CFU/g) ([3]; Table 12, alone 4 mg/kg (sulfate salt) IV) [log CFU/g] | log reduction in bacterial counts compared to non-treated control [4] [log] | Log reduction from vehicle (CFU/g) ([5]; Table 14, 1 mg/kg (sulfate salt) IV at 1, 3.5 and 6 h, 9 h) [log CFU/g] | Log reduction from vehicle (CFU/g) ([5]; Table 14, 2 mg/kg (sulfate salt) IV at 1, 3.5 and 6 h, 9 h) [log CFU/g] | Log reduction from vehicle (CFU/g) ([5]; Table 14, 4 mg/kg (sulfate salt) IV at 1, 3.5 and 6 h, 9 h) [log CFU/g] | Log reduction from vehicle (CFU/g) ([5]; Table 15, 1 mg/kg (sulfate salt) IV, 9 h) [log CFU/g] | Log reduction from vehicle (CFU/g) ([5]; Table 15, 2 mg/kg (sulfate salt) IV, 9 h) [log CFU/g] | Log reduction from vehicle (CFU/g) ([5]; Table 15, 4 mg/kg (sulfate salt) IV, 9 h) [log CFU/g] | Log reduction from vehicle (CFU/g) ([5]; Table 16, 0.85 mg/kg free base equivalent, infection level ~1×10^4 CFU/mouse thigh) [log CFU/g] | Log reduction from vehicle (CFU/g) ([5]; Table 16, 3.4 mg/kg free base equivalent, infection level ~1×10^4 CFU/mouse thigh) [log CFU/g] |
| --- | --- | --- | --- | --- | --- | --- | --- | --- | --- | --- | --- | --- | --- | --- | --- |
| CC(C)C[C@@H]1NC(=O)[C@@H](Cc2ccccc2)NC(=O)[C@H](CCN)NC(=O)[C@@H](NC(=O)[C@H](CCN)NC(=O)[C@@H](NC(=O)CC(N)C2CCCCC2)C(C)O)CCNC(=O)[C@H](C(C)O)NC(=O)[C@H](CCN)NC(=O)[C@H](CCN)NC1=O (stereo partly drawn) [Example 10, [3(R,S)-3-Amino-3-cyclohexane-propanoyl]Polymyxin B nonapeptide] ({ξβ3hGly(cHex)}-[Thr(3ξ)][Dab][Dab][Dab][dF]L[Dab][Dab][Thr(3ξ)]; lactam 3-C) | significantly reduced levels |  |  |  |  |  |  |  |  |  |  |  |  |  |  |
| Polymyxin B [reference compound] |  | 11^b μg/mL | 4.8 | −0.36 | 1.93 | 3.61 | 5.37 | 0.58 | 1.67 | 5.09 | −0.12 | 1.40 | 3.41 | 1.19 | 4.23 |

— patent publication US10407467B2, “Polymyxin derivatives and their use in combination therapy together with different antibiotics” (priority 2013, dated 2019)
